The source of these data is US11352329B2, “HIV protease inhibitors” (Gilead Sciences, Inc., priority 2017, dated 2022).

For orientation: EC50 means the concentration that produces a half-maximal response.

Test system in the first data set: not listed separately
As to the kind of experiment: Liver microsomal stability, human. In kind it is in vitro ADME. Conditions: liver microsomes, read-out: Half-lives. On the procedure:
Test compounds and one control compound (verapamil) were tested in 3 different species in duplicate sets.
Test compound concentration: 1 uM; Protein concentration: 0.5 mg/mL (for dog, rat, and human liver microsomes); Cofactor: NADPH-Regenerating system (NRS) solution; Time-points: 2, 12, 25, 45, and 65 minutes.
Reaction Composition (in Each Incubation Well) Contains:
At an incubation temperature of 37° C., the reaction was started with addition of NADPH Regeneration System, at each time point, 25 uL of the reaction mixture was removed and added to a plate with 225 uL quenching solution (50% MeOH, 25% ACN, 25% H2O, and 200 nM labetalol as internal standard). After plates were vortexed, they were centrifuged for 30 minutes to remove proteins. About 100 μL supernatant was removed to a new plate and diluted with 150 μL water. About 20 μL of the mixture was injected into LC/MS/MS system to monitor the compound's response. In vitro measured t½ was used to calculate Clint values.
Background: Liver microsomes are vesicles of endoplasmic reticulum, rich in cytochrome P450 enzymes.
With `CC(C)(C)C[C@]1(c2ccc(-c3cnn(C(F)F)c3)cc2)NC(=N)N([C@H](COC(=O)N[C@@H]2C[C@H]2C(F)(F)F)c2ccc(Cl)c(-n3ncnc3C(F)F)c2)C1=O` (single isomer, unassigned) [Compound 331], the half-life at 1 uM is no less than 395 min.

Consider `CC(C)(C)C[C@]1(c2ccc(-c3cnn(C(F)F)c3)cc2)NC(=N)N([C@H](COC(=O)NC2CC2)c2ccc(Cl)c(-c3nccc(=O)[nH]3)c2)C1=O` [Compound 17], for which the half-life at 1 uM is no less than 395 min.

In the case of `CC(C)(C#N)C[C@]1(c2ccc(-c3cnn(C(F)F)c3)cc2)NC(=N)N([C@H](COC(=O)NC2(C(F)(F)F)CC2)c2ccc(Cl)c(-n3ncnc3C(F)F)c2)C1=O` [Compound 336], the half-life at 1 uM was no less than 395 min.

For `CC(C)(C)C[C@]1(c2ccc(-c3cnn(C(F)F)c3)cc2)NC(=N)N([C@H](COC(=O)NC2(C(F)(F)F)CC2)c2ccc(F)c(-n3ncnc3C(F)F)c2)C1=O` [Compound 380], the half-life at 1 uM is no less than 395 min.

For `COC(=O)N[C@H](C(=O)N[C@@H](Cc1ccccc1)[C@@H](O)CN(Cc1ccc(-c2ccccn2)cc1)NC(=O)[C@@H](NC(=O)OC)C(C)(C)C)C(C)(C)C` [atazanavir, methyl N-[(2S)-1-[2-[(2S,3S)-2-hydroxy-3-[[(2S)-2-(methoxycarbonylamino)-3,3-dimethylbutanoyl]amino]-4-phenylbutyl]-2-[(4-pyridin-2-ylphenyl)methyl]hydrazinyl]-3,3-dimethyl-1-oxobutan-2-yl]carbamate, reference compound], the half-life at 1 uM was in the range of 26 to 107 min.

The next data set deals with HIV-1 (IIIB) in MT-4 cells. As to the kind of experiment: microbe, parasite or virus in culture. Type of data set: cell-based. Conditions: Human immunodeficiency virus 1, IIIB, MT4, MT-4 cells.
Regarding `CC(C)(C)C[C@]1(c2ccc(-c3cnn(C(F)F)c3)cc2)NC(=N)N([C@H](COC(=O)NC2CC2)c2ccc(Cl)c(-c3nccc(=O)[nH]3)c2)C1=O` [Compound 17], the concentration giving a half-maximal response (EC50) worked out at 556 nM.

Compound `CC(C)(C)C[C@]1(c2ccc(-c3cnn(C(F)F)c3)cc2)NC(=N)N([C@H](COC(=O)NC(C)(C)C(F)F)c2ccc(F)c(-c3ncnn3C(F)F)c2)C1=O` [Compound 124] gave a 50% effective concentration (EC50) of 65.3 nM.

Regarding `CC(C)(C)C[C@]1(c2ccc(-c3cnn(C4CC4)c3)cc2)NC(=N)N([C@H](COC(=O)NC2(C(F)(F)F)CC2)c2ccc(Cl)c(-c3ncnn3C(F)F)c2)C1=O` [Compound 164], the EC50 is 16.5 nM.

For `CC(C)(C)C[C@]1(c2ccc(-c3cn(C4CC4)nn3)cc2)NC(=N)N([C@H](COC(=O)NC2(C(F)(F)F)CC2)c2ccc(Cl)c(-n3ncnc3C(F)F)c2)C1=O` [Compound 232], a half-maximal response (EC50) required 18.2 nM.

In turn, `CC(C)(C)C[C@]1(c2ccc3ncc(Br)cc3c2)NC(=N)N([C@H](COC(=O)NC(C)(C)C(F)F)c2ccc(Cl)c(-n3ncnc3C(F)F)c2)C1=O` [Compound 327] yielded an EC50 of 30.7 nM.

With `CC(C)(C#N)C[C@]1(c2ccc(-c3cnn(C(F)F)c3)cc2)NC(=N)N([C@H](COC(=O)NC2(C(F)(F)F)CC2)c2ccc(Cl)c(-n3ncnc3C(F)F)c2)C1=O` [Compound 336], the EC50 came to 74.7 nM.

Regarding `CC(C)(CC#N)C[C@]1(c2ccc(-c3cnn(C4CC4)n3)cc2)NC(=N)N([C@H](COC(=O)NC2(C(F)(F)F)CC2)c2ccc(Cl)c(-n3ncnc3C(F)F)c2)C1=O` [Compound 362], a half-maximal effect (EC50) was put at 36.4 nM.

`CC(C)(C)C[C@]1(c2ccc(-c3cnn(C(C)(C)C)n3)cc2)NC(=N)N([C@H](COC(=O)NC2(C(F)(F)F)CC2)c2ccc(Cl)c(-n3ncnc3C(F)F)c2)C1=O` [Compound 371] displayed a concentration giving a half-maximal response (EC50) of 26.7 nM.

On to `CC(C)(C)C[C@]1(c2ccc(-c3cnn(C(F)F)c3)cc2)NC(=N)N([C@H](COC(=O)NC2(C(F)(F)F)CC2)c2ccc(-n3ncnc3C(F)F)c(F)c2)C1=O` [Compound 379], for which the response was half-maximal at 134 nM (EC50).

Compound `CC(C)(C)C[C@]1(c2ccc(-c3cnn(C(F)F)c3)cc2)NC(=N)N([C@H](COC(=O)NC2(C(F)(F)F)CC2)c2ccc(F)c(-n3ncnc3C(F)F)c2)C1=O` [Compound 380] returned a concentration giving a half-maximal response (EC50) of 29.2 nM.

The same data set, now with this note: MT-4 cells; read-out: MT4 EC50.
`[H]/N=C1\N[C@](CC(C)(C)C)(c2ccc(-c3cnn(C(F)F)c3)cc2F)C(=O)N1[C@H](COC(=O)NC1CC1)c1ccc(Cl)c(-c2ncn[nH]2)c1` [Compound 11]: the EC50 amounted to 35.5 nM.

Take `CC(C)(C)C[C@]1(c2ccc(-c3cnccn3)cc2)NC(=N)N([C@H](COC(=O)NC2(C(F)(F)F)CC2)c2ccc(Cl)c(-c3ncn[nH]3)c2)C1=O` [Compound 26]: the 50% effective concentration (EC50) was determined as 102 nM.

As to `CC(C)(C)C[C@]1(c2ccc(-c3cnn(C(F)F)c3)c(F)c2)NC(=N)N([C@H](COC(=O)NCC(C)(F)F)c2ccc(Cl)c(-n3ncnc3C(F)F)c2)C1=O` [Compound 299], the EC50 was 13 nM.
